One assay has as its system TT Cell. As to the kind of experiment: TT cell activity test (CelltiterGlo, 72 h). As to conditions: for pIC50: Homo sapiens, TT cell line, 72 h, CTG; for inhibitory activity on TT cells compared with cabozantinib: comparison in words. Format: cell-based, human. As to the method: 2.3 Data Processing % Inhibition (inhibition rate)=100*(HC−test compound well reading)/(HC−LC) • High control (HC, reading control without inhibition): 0.5% DMSO • Low control (LC, control with compound inhibition): 1 μM CEP-32496
The IC50 values were calculated using GraphPad Prism 6 software. Y=Bottom+(Top−Bottom)/(1+10^((Log IC50−X)*HillSlope)); • X: log of cpd concentration; • Y: % inhibition; • Top and Bottom: plateaus in same units as Y; • Log IC50: same log units as X; and • HillSlope: slope factor The Cell Results are Shown in Table 5: […]
Background: Cellular ATP, detected with luciferase, serves as a proxy for viable cell number.

The target in a further assay is RET G810R (Homo sapiens (Human), UniProt P07949, G810R). Briefly: HTRF kinase activity test, RET G810R. As to conditions: for pIC50: HTRF KinEASE-TK; for inhibitory activity on RET G810R compared with cabozantinib and selpercatinib (LOXO-292): comparison in words. Format: biochemical.
Another assay concerns the target RET V804M (Homo sapiens (Human), UniProt P07949, V804M). Briefly: HTRF kinase activity test, RET V804M. The assay is classed as biochemical. As to conditions: for pIC50: HTRF KinEASE-TK; for inhibitory activity on RET V804M compared with cabozantinib: comparison in words. On the technique in general: In TR-FRET formats the signal depends on donor and acceptor labels being close together.

pIC50: −log10 of the molar value.

Chain of RET V804M (P07949 29-1114 V804M): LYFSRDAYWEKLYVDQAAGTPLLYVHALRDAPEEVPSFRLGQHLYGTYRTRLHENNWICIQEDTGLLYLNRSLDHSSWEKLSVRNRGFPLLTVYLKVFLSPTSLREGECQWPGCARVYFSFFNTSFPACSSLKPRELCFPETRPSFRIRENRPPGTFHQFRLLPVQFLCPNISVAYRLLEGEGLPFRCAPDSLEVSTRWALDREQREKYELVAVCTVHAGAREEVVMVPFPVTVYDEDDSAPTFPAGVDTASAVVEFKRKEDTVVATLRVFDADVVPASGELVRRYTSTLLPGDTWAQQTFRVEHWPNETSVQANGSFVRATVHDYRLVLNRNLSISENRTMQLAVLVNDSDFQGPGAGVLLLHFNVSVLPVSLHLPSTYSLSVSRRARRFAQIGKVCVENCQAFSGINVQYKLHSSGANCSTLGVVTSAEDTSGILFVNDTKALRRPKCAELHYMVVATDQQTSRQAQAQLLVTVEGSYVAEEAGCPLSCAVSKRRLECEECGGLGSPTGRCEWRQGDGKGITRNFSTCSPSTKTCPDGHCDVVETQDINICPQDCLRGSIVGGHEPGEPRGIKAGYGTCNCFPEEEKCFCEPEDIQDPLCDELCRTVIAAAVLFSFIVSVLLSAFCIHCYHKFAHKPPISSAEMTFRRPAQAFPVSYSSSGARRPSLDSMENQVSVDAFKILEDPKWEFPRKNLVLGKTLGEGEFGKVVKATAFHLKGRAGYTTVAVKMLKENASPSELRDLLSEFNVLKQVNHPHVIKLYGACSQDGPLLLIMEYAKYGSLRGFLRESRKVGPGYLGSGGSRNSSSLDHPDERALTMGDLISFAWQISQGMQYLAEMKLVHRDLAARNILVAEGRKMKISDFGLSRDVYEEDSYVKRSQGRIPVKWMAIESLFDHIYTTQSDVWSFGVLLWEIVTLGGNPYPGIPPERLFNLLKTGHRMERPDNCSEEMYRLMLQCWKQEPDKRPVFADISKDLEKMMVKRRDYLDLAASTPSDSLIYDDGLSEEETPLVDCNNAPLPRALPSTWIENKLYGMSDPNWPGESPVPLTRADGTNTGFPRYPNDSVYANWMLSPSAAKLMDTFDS
Chain of RET G810R (P07949 29-1114 G810R): as the sequence (P07949 29-1114 V804M) above, with M776V, G782R counted along it

As a reminder, the pIC50 is the IC50 on a negative log10 scale, so that one unit is a factor of ten. A low value points to a large IC50. `COc1ccc(CN2C3CC2CN(c2cnc(-c4cc(OCCF)cn5nc6[nH]ncc6c45)cn2)C3)cn1` [Compound 16, 6-(2-fluoroethoxy)-4-(5-(6-((6-methoxypyridin-3-yl)methyl)-3,6-diazabicyclo[3.3.1]heptan-3-yl)pyrazin-2-yl)-1H-pyrazolo[3′,4′:3,4]pyrazolo[1,5-a]pyridine]: in the assay with TT Cell, the pIC50 is 7.89 and the “inhibitory activity on TT cells compared with cabozantinib” value is recorded as “significantly better than that of cabozantinib”. Also, on RET G810R, the negative logarithm of the IC50 (pIC50) is 8.54; the “inhibitory activity on RET G810R compared with cabozantinib and selpercatinib (LOXO-292)” value was “significantly better than that of cabozantinib and selpercatinib (LOXO-292)”. At RET V804M, the pIC50 is 10.00 and the “inhibitory activity on RET V804M compared with cabozantinib” value is on record as “significantly better than that of cabozantinib”.
As to `CCN(CC)C(=O)N1CCN(c2ccc(-c3cc(OCCF)cn4nc5[nH]ncc5c34)cn2)CC1` [Compound 18, N,N-diethyl-4-(5-(6-(2-fluoroethoxy)-1H-pyrazolo[3′,4′:3,4]pyrazolo[1,5-a]pyridin-4-yl)pyridin-2-yl)piperazine-1-carboxamide], in the assay with TT Cell, the pIC50 is 7.11 and the “inhibitory activity on TT cells compared with cabozantinib” value was “significantly better than that of cabozantinib”. Further, on RET G810R, the pIC50 is 7.72; the “inhibitory activity on RET G810R compared with cabozantinib and selpercatinib (LOXO-292)” value is “significantly better than that of cabozantinib and selpercatinib (LOXO-292)”.
For the molecule `O=C(Cc1ccccn1)N1CCN(c2ccc(-c3cc(OCCF)cn4nc5[nH]ncc5c34)cn2)CC1` [Compound 19, 1-(4-(5-(6-(2-fluoroethoxy)-1H-pyrazolo[3′,4′:3,4]pyrazolo[1,5-a]pyridin-4-yl)pyridin-2-yl)piperazin-1-yl)-2-(pyridin-2-yl)ethan-1-one], in the assay with TT Cell, the negative-log IC50 (pIC50) was 7.51 and the “inhibitory activity on TT cells compared with cabozantinib” value is given as “significantly better than that of cabozantinib”. Further, on RET G810R, the pIC50 was 8.32; the “inhibitory activity on RET G810R compared with cabozantinib and selpercatinib (LOXO-292)” value was “significantly better than that of cabozantinib and selpercatinib (LOXO-292)”.
On to `O=C([C@H](O)c1ccccc1)N1CCN(c2ccc(-c3cc(OCCF)cn4nc5[nH]ncc5c34)cn2)CC1` [Compound 20, (R)-1-(4-(5-(6-(2-fluoroethoxy)-1H-pyrazolo[3′,4′:3,4]pyrazolo[1,5-a]pyridin-4-yl)pyridin-2-yl)piperazin-1-yl)-2-hydroxy-2-phenylethan-1-one], for which, in the assay on TT Cell, the pIC50 was 7.56 and the “inhibitory activity on TT cells compared with cabozantinib” value is on record as “significantly better than that of cabozantinib”. Also, at RET G810R, the pIC50 was 8.80; the “inhibitory activity on RET G810R compared with cabozantinib and selpercatinib (LOXO-292)” value is “significantly better than that of cabozantinib and selpercatinib (LOXO-292)”.
In the case of `CO[C@@H](C(=O)N1CCN(c2ccc(-c3cc(OCCF)cn4nc5[nH]ncc5c34)cn2)CC1)c1ccccc1` [Compound 21, (R)-1-(4-(5-(6-(2-fluoroethoxy)-1H-pyrazolo[3′,4′:3,4]pyrazolo[1,5-a]pyridin-4-yl)pyridin-2-yl)piperazin-1-yl)-2-methoxy-2-phenylethan-1-one], in the assay on TT Cell, the negative logarithm of the IC50 (pIC50) was 7.80 and the “inhibitory activity on TT cells compared with cabozantinib” value is “significantly better than that of cabozantinib”. Moreover, at RET G810R, the pIC50 is 9.22; the “inhibitory activity on RET G810R compared with cabozantinib and selpercatinib (LOXO-292)” value is “significantly better than that of cabozantinib and selpercatinib (LOXO-292)”.
With `COc1ccc(C(=O)N2CCN(c3ccc(-c4cc(OCCF)cn5nc6[nH]ncc6c45)cn3)CC2)cn1` [Compound 22, (4-(5-(6-(2-fluoroethoxy)-1H-pyrazolo[3′,4′:3,4]pyrazolo[1,5-a]pyridin-4-yl)pyridin-2-yl)piperazin-1-yl)(6-methoxypyridin-3-yl)methanone], in the assay on TT Cell, the pIC50 was 7.40 and the “inhibitory activity on TT cells compared with cabozantinib” value is “significantly better than that of cabozantinib”. Besides, at RET G810R, the pIC50 was 8.77; the “inhibitory activity on RET G810R compared with cabozantinib and selpercatinib (LOXO-292)” value was “significantly better than that of cabozantinib and selpercatinib (LOXO-292)”.
Turning to `COc1ccc(C(=O)N2C3CC2CN(c2ccc(-c4cc(OCCF)cn5nc6[nH]ncc6c45)cn2)C3)cn1` [Compound 23, (3-(5-(6-(2-fluoroethoxy)-1H-pyrazolo[3′,4′:3,4]pyrazolo[1,5-a]pyridin-4-yl)pyridin-2-yl)-3,6-diazabicyclo[3.3.1]heptan-6-yl)(6-methoxypyridin-3-yl)methanone], in the assay on TT Cell, the pIC50 was 8.10 and the “inhibitory activity on TT cells compared with cabozantinib” value is given as “significantly better than that of cabozantinib”. For the same molecule, at RET V804M, the pIC50 is 10.00 and the “inhibitory activity on RET V804M compared with cabozantinib” value is recorded as “significantly better than that of cabozantinib”.
As for `COc1cc(-c2cnc(N3CC4CC(C3)N4Cc3ccc(OC)nc3)cn2)c2c3cn[nH]c3nn2c1` [Compound 24, 6-methoxy-4-(5-(6-((6-methoxypyridin-3-yl)methyl)-3,6-diazabicyclo[3.3.1]heptan-3-yl)pyrazin-2-yl)-1H-pyrazolo[3′,4′:3,4]pyrazolo[1,5-a]pyridine], in the assay with TT Cell, the pIC50 is 7.65 and the “inhibitory activity on TT cells compared with cabozantinib” value was “significantly better than that of cabozantinib”. For the same molecule, on RET G810R, the pIC50 was 8.64; the “inhibitory activity on RET G810R compared with cabozantinib and selpercatinib (LOXO-292)” value was “significantly better than that of cabozantinib and selpercatinib (LOXO-292)”.
With `COc1ccc(CN2C3CC2CN(c2cnc(-c4cc(OCC(F)F)cn5nc6[nH]ncc6c45)cn2)C3)cn1` [Compound 25, 6-(2,2-difluoroethoxy)-4-(5-(6-((6-methoxypyridin-3-yl)methyl)-3,6-diazabicyclo[3.3.1]heptan-3-yl)pyrazin-2-yl)-1H-pyrazolo[3′,4′:3,4]pyrazolo[1,5-a]pyridine], in the assay on TT Cell, the negative logarithm of the IC50 (pIC50) is 7.63 and the “inhibitory activity on TT cells compared with cabozantinib” value is “significantly better than that of cabozantinib”. Besides, at RET G810R, the negative-log IC50 (pIC50) is 8.37; the “inhibitory activity on RET G810R compared with cabozantinib and selpercatinib (LOXO-292)” value was “significantly better than that of cabozantinib and selpercatinib (LOXO-292)”.
Consider `COc1ccc(CN2C3CC2CN(c2ccc(-c4cc(OCC#N)cn5nc6[nH]ncc6c45)cn2)C3)cn1` [Compound 26, 2-((4-(6-(6-((6-methoxypyridin-3-yl)methyl)-3,6-diazabicyclo[3.3.1]heptan-3-yl)pyridin-3-yl)-1H-pyrazolo[3′,4′:3,4]pyrazolo[1,5-a]pyridin-6-yl)oxy)acetonitrile], for which, in the assay on TT Cell, the negative logarithm of the IC50 (pIC50) is 7.64 and the “inhibitory activity on TT cells compared with cabozantinib” value is recorded as “significantly better than that of cabozantinib”. In addition, at RET G810R, the pIC50 was 8.68; the “inhibitory activity on RET G810R compared with cabozantinib and selpercatinib (LOXO-292)” value was “significantly better than that of cabozantinib and selpercatinib (LOXO-292)”.
As to `COc1ccc(CN2C3CC2CN(c2ccc(-c4cc(OCC(F)(F)F)cn5nc6[nH]ncc6c45)cn2)C3)cn1` [Compound 30, 4-(6-(6-((6-methoxypyridin-3-yl)methyl)-3,6-diazabicyclo[3.3.1]heptan-3-yl)pyridin-3-yl)-6-(2,2,2-trifluoroethoxy)-1H-pyrazolo[3′,4′:3,4]pyrazolo[1,5-a]pyridine], in the assay with TT Cell, the negative logarithm of the IC50 (pIC50) was 7.31 and the “inhibitory activity on TT cells compared with cabozantinib” value is “significantly better than that of cabozantinib”. Further, on RET G810R, the pIC50 was 8.23; the “inhibitory activity on RET G810R compared with cabozantinib and selpercatinib (LOXO-292)” value is “significantly better than that of cabozantinib and selpercatinib (LOXO-292)”.

For the origin of these results see US12338253B2, “Nitrogen-containing polycyclic fused ring compound, pharmaceutical composition thereof, preparation method therefor and use thereof” (APPLIED PHARMACEUTICAL SCIENCE, INC., priority 2019, dated 2025).
